The source of these data is patent US12240870B2, “Sequencing method for CAR T cell therapy” (Purdue Research Foundation, priority 2018, dated 2025).

One data set concerns the target T1, FRα (KB) (Homo sapiens, UniProt P15328).
T1 construct: endogenous in cells; host or cells: KB cells
Briefly: 3H-EC17 cell-based radioligand binding assay on KB cells. The settings on record: 2 h at 37° C. The method, then: FIG. 10, Panel A: Kd values of ^3H-EC17 uptake by FR+ target cells after a 2 hour incubation at 37° C. (calculated from the numbers of molecules bound per cell). Panel B: Kd value of ^3H^−EC17 uptake by E2-CAR-T cells (˜24% EGFRt+, ˜95:5 CD8/CD4 ratio) after a 2 hour incubation at room temperate (calculated from total cell-associated radioactivity, DPM).
The bispecific affinities of EC17 CAM (a CAM is equivalent to a “bridge” or the “compound” in this application) were assessed using ^3H-EC17 in cell-based radioligand binding assays. […] The whole cell lysates were quantitated for the level of radioactivity and cellular protein content by standard Pierce BCA protein assay. The number of ^3H-EC17 molecules bound per cell was calculated to determine the dissociation constants (Kd) for FRα (KB) and FRβ (CHO-β) respectively (FIG. 10).
The EC17 has already been tested in the clinic for immunotherapy and optical imaging purposes. To directly quantify its bispecific binding affinities, ^3H-EC17 was synthesized and radioligand binding assays were carried out on KB and CHO-β cell lines representing FRα+ and FRβ+ target cells, respectively, and on unsorted EGFRt CAR-T cells representing the effector cells.

Data set [1] can be described thus: EC17 dose finding and CRS assessment in tumor-free mice. It is filed as in vivo, NSG mice. From the text:
Panel A: Schematic diagram to show dose scheduling of CAR-T cells (˜10 million “clinical facsimile”) plus EC17 dosed 3 different ways in NSG mice without or with pre-established MDA-MB-231 xenografts. Tumor-free mice received EC17 SIW 500 nmol/kg (2 doses on days 2 and 10). Tumor-bearing mice received EC17 as follows: EC17 SIW 500 nmol/kg (5 doses on days 2, 10, 17, 24, and 31), EC17 M/Th/M_Escalation-1 (repeats of 5/50/500 nmol/kg on Monday/Thursday/Monday followed by 1-week break, i,e. on days 2, 6, 10, 17, 20, 24, and 31), or EC17 M/Th/M_Escalation-2 (repeats of 5/100/1000 nmol/kg on Monday/Thursday/Monday followed by 1-week break, i.e. days 2, 6, 10, 17, 20, 24, and 31). Panel B: Systemic levels of human IFNγ on a log 2 scale detected in mouse plasma on days 11 and 12 after CAR-T cell injection in tumor-bearing versus tumor-free mice (i.e., ˜20 and 42 hours after the previous EC17 dose in all treated cohorts). Panel C: Circulating CAR-T cells in mouse blood identified as human CD3ε+ EGFRt+ events by flow cytometry and enumerated per 100 μL of whole blood. Panel D: Measurements of change in body weight and tumor volume in tumor-bearing mice that received CAR-T cells only or CAR-T cells plus EC17 dosed 3 different ways (dashed lines indicated each EC17 dose). n=5 mice per group. All data represent mean±s.e.m. * p<0.05 by one-way ANOVA test. […]

T1 sequence (P15328 25-234): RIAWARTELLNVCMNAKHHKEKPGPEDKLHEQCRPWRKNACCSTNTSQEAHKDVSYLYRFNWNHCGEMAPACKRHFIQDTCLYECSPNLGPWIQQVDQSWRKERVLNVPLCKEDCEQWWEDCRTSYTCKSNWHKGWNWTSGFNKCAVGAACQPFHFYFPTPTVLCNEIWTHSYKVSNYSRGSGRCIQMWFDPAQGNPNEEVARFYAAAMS

For orientation: Kd means the concentration at which binding is half-saturated. A high value points to a looser complex. Regarding `Nc1nc2ncc(CNc3ccc(C(=O)N[C@@H](CCC(=O)NCCNC(=S)Nc4ccc(-c5c6ccc(=O)cc-6oc6cc(O)ccc56)c(C(=O)O)c4)C(=O)O)cc3)nc2c(=O)[nH]1` [EC17, FA-(γ)-ethylenediamine-FITC], at FRα (KB), binding was characterised by a dissociation constant (Kd) of 1.7 nM. Further, the body weight loss result in data set [1] (tumor-free mice, two weekly doses of EC17 at 500 nmol/kg) is reported as “no CRS symptoms (grade 0 out of a 0-5 scale) or body weight loss was observed”. Further, in data set [1] (tumor-free, CAR-T cells plus EC17, days 11 and 12), the “human IFNγ in mouse plasma” value was “low levels of IFNγ were detected”.
